Measurements taken from US10039806B2, “Methods and compositions for treating antiprogestin-resistant cancers” (Fundación Sales, priority 2011, dated 2018).

Tests used:
C4-HI cells = assay: (3H)-thymidine uptake, primary cultures of purified epithelial cells; type: cell-based, mouse; settings: 48 h, with MPA; P<0.001
Method: (§1) Epithelial cells and carcinoma-associated fibroblasts were separated by differential sedimentation and plated with 10% FCS. Carcinoma-associated fibroblasts were allowed to attach for 0.5 h and the epithelial cells for 24-48 h. The medium was replaced by fresh medium with 10% FCS; thereafter, it was changed every 2-3 days.
(§2) (3H)-thymidine-uptake was used as an indirect method to evaluate cell proliferation. In brief, cells were seeded into 96-well microplates. After attachment (24 h), the cells were incubated for 24 h with 1% steroid-stripped FCS and then for 48 h with the experimental solutions to be tested in 1% chFCS. Fifty percent of the medium was replaced with fresh medium every 24 h. The cells were incubated with 0.4 μCi of 3H-thymidine (specific activity: 20 Ci/mmol) for 24 h, trypsinized, and harvested in a cell harvester. In experiments in which 5azadC was used, the experiments were carried out using proliferating cells (presence of 10% FCS) to guarantee the effect of the demethylating agent. Three different experiments were made using octuplicates, and the means and standard deviations of one representative experiment of the other three are shown. The results are expressed as the proliferation index (cpm […] experimental group/cpm control; mean±SEM).

C4-HIR cells = assay: as above; type: cell-based, mouse; settings: 48 h, with MPA; P<0.001
Method: as §1, §2

T47D-YA tumors = assay: Xenograft in NOD/LtSz-scid/IL-2Rgamma null mice; type: in vivo, human
Text: (§3) BH-6 cell line was developed from an invasive ductal breast carcinoma (1). IBH-6 cells express basal levels of hormone receptors, they are tumorigenic and in vivo express higher levels of PRB than PRA (2). Cells were transfected with human PRB, PRA (pSG5-PRB, pSG5-PRA, kindly provided by K. Horwitz) or with the empty vector (pSG5), together with a plasmid encoding the neomycin resistance gene pIRES-N1(3), using Lipofectamine transfection reagent (Invitrogen) following the manufacturer's instructions. Transfected and selected cells were cultured in medium supplemented with […] G418 (neomycin analogue, GIBCO). The expression of PRB and PRA were analyzed by western blot and immunofluorescence (using Ab7 and Ab6 antibodies from Thermo Fisher). T47D-YA or YB were kindly provided by K. Horwitz and cultured as previously described (4).
(§4) Transfected and selected cells were grown up to confluence, washed with PBS, detached with 0.25% trypsin, centrifuged at 1000 rpm for 10 min and resuspended in a final concentration of 10^6 (IBH-6) or 5×10^6 (T47D) cells per 100 μl of culture medium. The cells were sc inoculated into the right flank of nu/nu (IBH-6) or NOD/LtSz-scid/IL-2Rgamma null (T47D-YA or -YB cells) female mice. Only in experiments involving T47D cells E2 silastic pellets (0.5 mg) were implanted sc into the back of the animals one week prior tumor cell inoculation and 70 μl of Matrigel were mixed with the cell suspension at the moment of injection. MFP (6 mg) silastic pellets were sc implanted when tumors reached 20-40 mm^2. For T47D cells, experiments were repeated inoculating both cell types (T47D-YA or -YB) simultaneously in the left or right flank of the mouse, respectively.
(§5) Sections of formalin-fixed, paraffin-embedded tissue were stained with PR (C-19), or Ki67 (Dako, M7248) antibodies using the avidin-biotin-peroxidase complex technique (Vectastain Elite ABC kit; Vector), as described previously (6). Positive cells were counted in 10 high-power fields (HPFs) of each section, using 1000× magnification, and expressed as the mean±SEM of the ratio between the number of positive events and the total cell number.

T47D-YB tumors = assay: Xenograft in NOD/LtSz-scid/IL-2Rgamma null mice; type: in vivo, human
Text: as §3, §4, §5

C4-HI = settings: concentrations lower than growth inhibitory ones; cited from earlier work
T47D cells = settings: cited from earlier work
mammary glands = settings: 50 mg/every other day, three months; cited from earlier work

CC#C[C@]1(O)CC[C@H]2[C@@H]3CCC4=CC(=O)CCC4=C3[C@@H](c3ccc(N(C)C)cc3)C[C@@]21C [RU-486, mifepristone]
MPA-induced proliferative effect (C4-HI cells): abolished
MPA-induced proliferative effect (C4-HIR cells): abolished
tumor size (T47D-YA tumors; MFP pellet, E2 pellet 0.5 mg, p<0.05): reduced their size
mitotic figures and apoptosis (T47D-YA tumors; in vivo): Few mitotic figures and a high degree of apoptosis
nuclear MYC or CCND1 expression (IHC) (T47D-YA tumors; in vivo): decreased levels of nuclear MYC or CCND1 expression
tumor morphology (T47D-YA tumors; in vivo): morphological signs of tumor regression
tumor size (T47D-YB tumors; MFP pellet, E2 pellet 0.5 mg): no significant differences
nuclear MYC or CCND1 staining (IHC) (T47D-YB tumors; in vivo): intense nuclear staining
tumor growth at low doses (C4-HI): stimulated C4-HI growth
effects on T47D cells (T47D cells; 5% FCS): inhibitory effects
proliferation of T47D and MCF-7 cells (T47D cells; MIF at micromolar concentrations): stimulate the proliferation
E2-induced cell proliferation (T47D cells; clone 11, ER- and PR-positive): specifically inhibit E2-induced cell proliferation
cell proliferation in mammary gland aspirates (mammary glands): Inhibition of cell proliferation
